From the CheMixHub viscosity set
“And” between values parts separate entries of the source, which are not always exact repeats. Equal entries are not always repeated. ± gives the uncertainty stated by the source.

Assay: xn = mol fraction of the nth substance listed

CC(C)(C)O + O
viscosity (298.15 K, 100 kPa, x1 = 0.1): 3.149 ± 0.13 mPa·s | viscosity (298.15 K, 100 kPa, x1 = 0.25): 4.729 ± 0.19 mPa·s | viscosity (298.15 K, 100 kPa, x1 = 0.3): 4.782 ± 0.2 mPa·s | viscosity (298.15 K, 100 kPa, x1 = 0.4): 4.889 ± 0.2 mPa·s | viscosity (298.15 K, 100 kPa, x1 = 0.5): 4.646 ± 0.19 mPa·s | viscosity (298.15 K, 100 kPa, x1 = 0.75): 4.225 ± 0.17 mPa·s | viscosity (298.15 K, 101 kPa, x1 = 0.026): 1.506 ± 0.013 mPa·s | viscosity (298.15 K, 101 kPa, x1 = 0.057): 2.309 ± 0.021 mPa·s | viscosity (298.15 K, 101 kPa, x1 = 0.094): 3.123 ± 0.03 mPa·s | viscosity (298.15 K, 101 kPa, x1 = 0.14): 3.797 ± 0.038 mPa·s | viscosity (298.15 K, 101 kPa, x1 = 0.2): 4.311 ± 0.046 mPa·s | viscosity (298.15 K, 101 kPa, x1 = 0.27): 4.715 ± 0.053 mPa·s | viscosity (298.15 K, 101 kPa, x1 = 0.36): 4.835 ± 0.058 mPa·s | viscosity (298.15 K, 101 kPa, x1 = 0.49): 4.73 ± 0.059 mPa·s | viscosity (298.15 K, 101 kPa, x1 = 0.69): 4.355 ± 0.057 mPa·s | viscosity (298.15 K, 101.33 kPa, x1 = 0.02): 1.315 ± 0.0066 mPa·s and 1.33 ± 0.05 mPa·s and 1.27 ± 0.05 mPa·s | viscosity (298.15 K, 101.33 kPa, x1 = 0.0206): 1.337 ± 0.0087 mPa·s | viscosity (298.15 K, 101.33 kPa, x1 = 0.026): 1.52 ± 0.06 mPa·s and 1.45 ± 0.05 mPa·s | viscosity (298.15 K, 101.33 kPa, x1 = 0.0397): 1.85 ± 0.0092 mPa·s | viscosity (298.15 K, 101.33 kPa, x1 = 0.04): 1.89 ± 0.08 mPa·s and 1.79 ± 0.06 mPa·s | viscosity (298.15 K, 101.33 kPa, x1 = 0.0447): 2.015 ± 0.013 mPa·s | viscosity (298.15 K, 101.33 kPa, x1 = 0.057): 2.35 ± 0.1 mPa·s and 2.19 ± 0.08 mPa·s | viscosity (298.15 K, 101.33 kPa, x1 = 0.06): 2.379 ± 0.012 mPa·s and 2.42 ± 0.1 mPa·s and 2.26 ± 0.08 mPa·s | viscosity (298.15 K, 101.33 kPa, x1 = 0.0745): 2.78 ± 0.018 mPa·s | viscosity (298.15 K, 101.33 kPa, x1 = 0.0798): 2.818 ± 0.014 mPa·s | viscosity (298.15 K, 101.33 kPa, x1 = 0.094): 3.16 ± 0.13 mPa·s and 2.97 ± 0.1 mPa·s | viscosity (298.15 K, 101.33 kPa, x1 = 0.1): 3.26 ± 0.13 mPa·s and 3.05 ± 0.1 mPa·s | viscosity (298.15 K, 101.33 kPa, x1 = 0.101): 3.238 ± 0.016 mPa·s | viscosity (298.15 K, 101.33 kPa, x1 = 0.1121): 3.55 ± 0.023 mPa·s | viscosity (298.15 K, 101.33 kPa, x1 = 0.1181): 3.532 ± 0.018 mPa·s | viscosity (298.15 K, 101.33 kPa, x1 = 0.139): 3.88 ± 0.16 mPa·s and 3.66 ± 0.12 mPa·s | viscosity (298.15 K, 101.33 kPa, x1 = 0.1395): 3.842 ± 0.019 mPa·s | viscosity (298.15 K, 101.33 kPa, x1 = 0.1574): 4.288 ± 0.028 mPa·s | viscosity (298.15 K, 101.33 kPa, x1 = 0.1609): 4.176 ± 0.021 mPa·s | viscosity (298.15 K, 101.33 kPa, x1 = 0.196): 4.47 ± 0.18 mPa·s and 4.41 ± 0.15 mPa·s | viscosity (298.15 K, 101.33 kPa, x1 = 0.198): 4.441 ± 0.022 mPa·s | viscosity (298.15 K, 101.33 kPa, x1 = 0.2199): 4.888 ± 0.034 mPa·s | viscosity (298.15 K, 101.33 kPa, x1 = 0.267): 4.89 ± 0.2 mPa·s and 4.86 ± 0.16 mPa·s | viscosity (298.15 K, 101.33 kPa, x1 = 0.3027): 4.984 ± 0.025 mPa·s | viscosity (298.15 K, 101.33 kPa, x1 = 0.3035): 5.292 ± 0.038 mPa·s | viscosity (298.15 K, 101.33 kPa, x1 = 0.362): 4.99 ± 0.2 mPa·s and 4.96 ± 0.16 mPa·s | viscosity (298.15 K, 101.33 kPa, x1 = 0.4285): 5.484 ± 0.049 mPa·s | viscosity (298.15 K, 101.33 kPa, x1 = 0.4313): 5.285 ± 0.052 mPa·s | viscosity (298.15 K, 101.33 kPa, x1 = 0.4315): 5.316 ± 0.048 mPa·s | viscosity (298.15 K, 101.33 kPa, x1 = 0.493): 4.86 ± 0.2 mPa·s and 4.86 ± 0.16 mPa·s | viscosity (298.15 K, 101.33 kPa, x1 = 0.4939): 5.199 ± 0.043 mPa·s | viscosity (298.15 K, 101.33 kPa, x1 = 0.5001): 4.811 ± 0.024 mPa·s | viscosity (298.15 K, 101.33 kPa, x1 = 0.5965): 4.912 ± 0.043 mPa·s | viscosity (298.15 K, 101.33 kPa, x1 = 0.686): 4.48 ± 0.18 mPa·s and 4.5 ± 0.15 mPa·s | viscosity (298.15 K, 101.33 kPa, x1 = 0.6961): 4.646 ± 0.044 mPa·s | viscosity (298.15 K, 101.33 kPa, x1 = 0.6976): 4.409 ± 0.022 mPa·s | viscosity (298.15 K, 101.33 kPa, x1 = 0.7888): 4.392 ± 0.044 mPa·s | viscosity (298.15 K, 101.33 kPa, x1 = 0.7907): 4.397 ± 0.044 mPa·s | viscosity (298.15 K, 101.33 kPa, x1 = 0.7931): 4.254 ± 0.021 mPa·s | viscosity (298.15 K, 101.33 kPa, x1 = 0.822): 4.27 ± 0.17 mPa·s and 4.28 ± 0.14 mPa·s | viscosity (298.15 K, 101.33 kPa, x1 = 0.8932): 4.308 ± 0.046 mPa·s | viscosity (298.15 K, 101.33 kPa, x1 = 0.9088): 4.222 ± 0.021 mPa·s | viscosity (298.15 K, 101.33 kPa, x1 = 0.9422): 4.288 ± 0.021 mPa·s | viscosity (298.15 K, 101.33 kPa, x1 = 0.96): 4.37 ± 0.18 mPa·s and 4.41 ± 0.15 mPa·s | viscosity (298.15 K, 101.33 kPa, x1 = 0.9734): 4.408 ± 0.022 mPa·s | viscosity (303 K, 101 kPa, x2 = 0.3): 3.527 ± 0.021 mPa·s | viscosity (303 K, 101 kPa, x2 = 0.5): 3.881 ± 0.023 mPa·s | viscosity (303 K, 101 kPa, x2 = 0.65): 3.975 ± 0.023 mPa·s | viscosity (303 K, 101 kPa, x2 = 0.91): 2.475 ± 0.015 mPa·s | viscosity (303 K, 101 kPa, x2 = 0.95): 1.772 ± 0.011 mPa·s | viscosity (303.2 K, 101.33 kPa, x2 = 0.05): 3.236 ± 0.022 mPa·s | viscosity (303.2 K, 101.33 kPa, x2 = 0.1): 3.214 ± 0.022 mPa·s | viscosity (303.2 K, 101.33 kPa, x2 = 0.15): 3.247 ± 0.022 mPa·s | viscosity (303.2 K, 101.33 kPa, x2 = 0.2): 3.309 ± 0.023 mPa·s | viscosity (303.2 K, 101.33 kPa, x2 = 0.3): 3.455 ± 0.024 mPa·s | viscosity (303.2 K, 101.33 kPa, x2 = 0.4): 3.599 ± 0.025 mPa·s | viscosity (303.2 K, 101.33 kPa, x2 = 0.5): 3.743 ± 0.027 mPa·s | viscosity (303.2 K, 101.33 kPa, x2 = 0.6): 3.877 ± 0.029 mPa·s | viscosity (303.2 K, 101.33 kPa, x2 = 0.7): 3.836 ± 0.029 mPa·s | viscosity (303.2 K, 101.33 kPa, x2 = 0.8): 3.541 ± 0.027 mPa·s | viscosity (303.2 K, 101.33 kPa, x2 = 0.85): 3.182 ± 0.024 mPa·s | viscosity (303.2 K, 101.33 kPa, x2 = 0.9): 2.604 ± 0.02 mPa·s | viscosity (303.2 K, 101.33 kPa, x2 = 0.95): 1.738 ± 0.014 mPa·s | viscosity (304 K, 101 kPa, x2 = 0.75): 3.646 ± 0.021 mPa·s | viscosity (305 K, 101 kPa, x2 = 0.1): 3.026 ± 0.019 mPa·s | viscosity (308.15 K, 101 kPa, x1 = 0.05): 1.541 ± 0.011 mPa·s | viscosity (308.15 K, 101 kPa, x1 = 0.1): 2.188 ± 0.016 mPa·s | viscosity (308.15 K, 101 kPa, x1 = 0.2): 2.951 ± 0.026 mPa·s | viscosity (308.15 K, 101 kPa, x1 = 0.3): 3.186 ± 0.034 mPa·s | viscosity (308.15 K, 101 kPa, x1 = 0.4): 3.219 ± 0.041 mPa·s | viscosity (308.15 K, 101 kPa, x1 = 0.5): 3.116 ± 0.046 mPa·s | viscosity (308.15 K, 101 kPa, x1 = 0.6): 2.973 ± 0.05 mPa·s | viscosity (308.15 K, 101 kPa, x1 = 0.7): 2.837 ± 0.054 mPa·s | viscosity (308.15 K, 101 kPa, x1 = 0.8): 2.701 ± 0.057 mPa·s | viscosity (308.15 K, 101 kPa, x1 = 0.9): 2.635 ± 0.062 mPa·s | viscosity (308.15 K, 101 kPa, x1 = 0.95): 2.606 ± 0.064 mPa·s | viscosity (313 K, 101 kPa, x2 = 0.1): 2.146 ± 0.014 mPa·s | viscosity (313 K, 101 kPa, x2 = 0.3): 2.33 ± 0.015 mPa·s | viscosity (313 K, 101 kPa, x2 = 0.5): 2.586 ± 0.016 mPa·s | viscosity (313 K, 101 kPa, x2 = 0.65): 2.674 ± 0.016 mPa·s | viscosity (313 K, 101 kPa, x2 = 0.75): 2.587 ± 0.015 mPa·s | viscosity (313 K, 101 kPa, x2 = 0.91): 1.747 ± 0.011 mPa·s | viscosity (313 K, 101 kPa, x2 = 0.95): 1.287 ± 0.008 mPa·s | viscosity (313.15 K, 101 kPa, x1 = 0.05): 1.311 ± 0.009 mPa·s | viscosity (313.15 K, 101 kPa, x1 = 0.07): 1.54 ± 0.011 mPa·s | viscosity (313.15 K, 101 kPa, x1 = 0.1): 1.84 ± 0.014 mPa·s | viscosity (313.15 K, 101 kPa, x1 = 0.2): 2.453 ± 0.022 mPa·s | viscosity (313.15 K, 101 kPa, x1 = 0.3): 2.615 ± 0.028 mPa·s | viscosity (313.15 K, 101 kPa, x1 = 0.4): 2.618 ± 0.034 mPa·s | viscosity (313.15 K, 101 kPa, x1 = 0.5): 2.534 ± 0.038 mPa·s | viscosity (323 K, 101 kPa, x2 = 0.1): 1.471 ± 0.0096 mPa·s | viscosity (323 K, 101 kPa, x2 = 0.3): 1.623 ± 0.01 mPa·s | viscosity (323 K, 101 kPa, x2 = 0.5): 1.809 ± 0.011 mPa·s | viscosity (323 K, 101 kPa, x2 = 0.65): 1.889 ± 0.012 mPa·s | viscosity (323 K, 101 kPa, x2 = 0.75): 1.85 ± 0.011 mPa·s | viscosity (323 K, 101 kPa, x2 = 0.91): 1.306 ± 0.0081 mPa·s | viscosity (323 K, 101 kPa, x2 = 0.95): 0.9856 ± 0.0063 mPa·s | viscosity (323.15 K, 100 kPa, x1 = 0.1): 1.273 ± 0.053 mPa·s | viscosity (323.15 K, 100 kPa, x1 = 0.3): 1.834 ± 0.075 mPa·s | viscosity (323.15 K, 100 kPa, x1 = 0.4): 1.833 ± 0.075 mPa·s | viscosity (323.15 K, 100 kPa, x1 = 0.5): 1.696 ± 0.07 mPa·s | viscosity (323.15 K, 100 kPa, x1 = 0.75): 1.429 ± 0.059 mPa·s
